Eleven compounds from patent publication US11066445B2, “Immunomodulators acting as antagonists of PD-1” (Bristol-Myers Squibb Company, priority 2017, dated 2021) can be followed below.

In this experiment the target is T1, PD-1-Ig binding to PD-L1-TVMV-His (PD-L1-His) (Homo sapiens, UniProt Q9NZQ7).
T1 construct: hPDL1(19-239)-TVMV-His; TVMV protease cleavage site (C); made in house; host or cells: HEK293T cells
In words: PD-1/PD-L1 Homogenous Time-Resolved Fluorescence (HTRF) binding assay. The following applies: PD-1-Ig (20 nM) / PD-L1-His (10 nM), read-out: LE HTRF hPD1 hPDL1 IC50. An excerpt:
Methods for Testing the Ability of Macrocyclic Peptides to Compete for the Binding of Pd-1 to Pd-L1 Using Homogenous Time-Resolved Fluorescence (HTRF) Binding Assays
The ability of the macrocyclic peptides of the present disclosure to bind to PD-L1 was investigated using a PD-1/PD-L1 Homogenous Time-Resolved Fluorescence (HTRF) binding assay.
Homogenous Time-Resolved Fluorescence (HTRF) Assays of Binding of Soluble PD-1 to Soluble PD-L1. Soluble PD-1 and soluble PD-L1 refers to proteins with carboxyl-end truncations that remove the transmembrane-spanning regions and are fused to heterologous sequences, specifically the Fc portion of the human immunoglobuling G sequence (Ig) or the hexahistidine epitope tag (His). All binding studies were performed in an HTRF assay buffer consisting of dPBS supplemented with 0.1% (w/v) bovine serum albumin and 0.05% (v/v) Tween-20. For the PD-1-Ig/PD-L1-His binding assay, inhibitors were pre-incubated with PD-L1-His (10 nM final) for 15 m in 4 μl of assay buffer, followed by addition of PD-1-Ig (20 nM final) in 1 μl of assay buffer and further incubation for 15 m. PD-L1 fusion proteins from either human, cynomologous macaques, mouse, or other species were used. HTRF detection was achieved using europium crypate-labeled anti-Ig monoclonal antibody (1 nM final) and allophycocyanin (APC) labeled anti-His monoclonal antibody (20 nM final). Antibodies were diluted in HTRF detection buffer and 5 μl was dispensed on top of binding reaction. The reaction was allowed to equilibrate for 30 minutes and signal (665 nm/620 nm ratio) was obtained using an EnVision fluorometer. Additional binding assays were established between PD-1-Ig/PD-L2-His (20 and 5 nM, respectively), CD80-His/PD-L1-Ig (100 and 10 nM, respectively) and CD80-His/CTLA4-Ig (10 and 5 nM, respectively). Binding/competition studies between biotinylated Compound No. 71 and human PD-L1-His were performed as follows. Macrocyclic peptide inhibitors were pre-incubated with PD-L1-His (10 nM final) for 60 minutes in 4 μl of assay buffer followed by addition of biotinylated Compound No. 71 (0.5 nM final) in 1 μl of assay buffer. Binding was allowed to equilibrate for 30 minutes followed by addition of europium crypated labeled Streptavidin (2.5 pM final) and APC-labeled anti-His (20 nM final) in 5 μl of HTRF buffer. The reaction was allowed to equilibrate for 30 m and signal (665 nm/620 nm ratio) was obtained using an EnVision fluorometer.
Recombinant Proteins. Carboxyl-truncated human PD-1 (amino acids 25-167) with a C-terminal human Ig epitope tag [hPD-1 (25-167)-3S-IG] and human PD-L1 (amino acids 18-239) with a C-terminal His epitope tag [hPD-L1(19-239)-tobacco vein mottling virus protease cleavage site (TVMV)-His] were expressed in HEK293T cells and purified sequentially by recombinant Protein A affinity chromatography and size exclusion chromatography. Human PD-L2-His (Sino Biologicals), CD80-His (Sino Biologicals), CTLA4-Ig (RnD Systems) were all obtained through commercial sources.
Ranges are as follows: A=0.010-0.060 μM; B=0.0011-0.009 μM; C=0.0003-0.0010 μM.
(In general: TR-FRET usually uses a lanthanide donor and a delayed reading to cut background.)

Structures are written as SMILES. Like-named read-outs stand apart in the source and are kept apart here. Starred links: 1 amine or outer side, 2 acyl side, 3 side chain; linkers in the order of their positions; H or OH if unused. Positions of bridges follow the written chain, without caps; N, C: chain ends. Non-standard residues stand in square brackets, D forms with d. Residues, ends and D or L forms follow the SMILES beside them. *: point of attachment. X1 = O=C(O)CCCCCCCCCCCCCCC(=O)N[C@@H](CCC(=O)NCCCOCCOCCOCCCN*)C(=O)O; X6 = COc1ccc2c(c1)c(C[C@H](N[*:1])C(=O)[*:2])cn2CC(=O)O; Hyp = O=C(O)[C@@H]1C[C@@H](O)CN1; NMeNle = CCCC[C@H](NC)C(=O)O; NMeA = CN[C@@H](C)C(=O)O; Dab = NCC[C@H](N)C(=O)O; Dap = NC[C@H](N)C(=O)O

T1 sequence (Q9NZQ7 with tags, fused parts or gaps): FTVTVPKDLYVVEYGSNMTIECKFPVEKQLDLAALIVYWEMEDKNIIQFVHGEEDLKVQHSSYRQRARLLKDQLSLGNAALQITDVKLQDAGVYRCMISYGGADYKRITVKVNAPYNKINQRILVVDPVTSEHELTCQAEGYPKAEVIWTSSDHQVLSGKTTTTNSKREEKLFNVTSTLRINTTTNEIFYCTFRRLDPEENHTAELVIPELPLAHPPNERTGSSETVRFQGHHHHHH

For the compound `CCCC[C@H]1C(=O)N(C)[C@@H](CCCC)C(=O)N[C@@H](CC(C)C)C(=O)N[C@H](C(=O)NCC(=O)N[C@@H](CC(=O)NCCCOCCOCCOCCCNC(=O)CC[C@H](NC(=O)CCCCCCCCCCCCCCC(=O)O)C(=O)O)C(=O)O)CSCC(=O)N[C@@H](Cc2ccc(O)cc2)C(=O)N(C)[C@@H](C)C(=O)N[C@@H](CC(N)=O)C(=O)N2CCC[C@H]2C(=O)N[C@@H](CN)C(=O)N[C@@H](CC(C)C)C(=O)N2C[C@H](O)C[C@H]2C(=O)N[C@@H](Cc2c[nH]c3ccccc23)C(=O)N[C@@H](CCN)C(=O)N[C@@H](Cc2cn(CC(=O)O)c3ccc(OC)cc23)C(=O)N1C` [Example 21] ({CH2CO}-Y[NMeA]NP[Dap]L[Hyp]W[Dab][X6][NMeNle][NMeNle]LCGD(X1)-OH; thioether N-14), under “range classes”, the IC50 (commonly the concentration at which inhibition is half-maximal) fell in the range of 1.1 to 9 nM.

For the compound `CCCC[C@H]1C(=O)N(C)[C@@H](CCCC)C(=O)N[C@@H](CC(C)C)C(=O)N[C@H](C(=O)N[C@@H](Cc2cn(CCOCCOCCOCCOCCOCCOCCOCCOCCOCCOCCOCCNC(=O)CC[C@H](NC(=O)CCCCCCCCCCCCCCCCC(=O)O)C(=O)O)nn2)C(=O)O)CSCC(=O)N[C@@H](Cc2ccc(O)cc2)C(=O)N(C)[C@@H](C)C(=O)N[C@@H](CC(N)=O)C(=O)N2CCC[C@H]2C(=O)N[C@@H](CN)C(=O)N[C@@H](CC(C)C)C(=O)N2C[C@H](O)C[C@H]2C(=O)N[C@@H](Cc2c[nH]c3ccccc23)C(=O)N[C@@H](CCN)C(=O)N[C@@H](Cc2nn(CC(=O)O)c3ccccc23)C(=O)N1C` [Example 22], the IC50 (numeric values) was 0.6 nM.

For `CCCC[C@H]1C(=O)N(C)[C@@H](CCCC)C(=O)N[C@@H](CC(C)C)C(=O)N[C@H](C(=O)NCC(=O)N[C@@H](Cc2cn(CCOCCOCCOCCOCCOCCOCCOCCOCCOCCOCCOCCNC(=O)CC[C@H](NC(=O)CCCCCCCCCCCCCCCCC(=O)O)C(=O)O)nn2)C(=O)O)CSCC(=O)N[C@@H](Cc2ccc(O)cc2)C(=O)N(C)[C@@H](C)C(=O)N[C@@H](CC(N)=O)C(=O)N2CCC[C@H]2C(=O)N[C@@H](CN)C(=O)N[C@@H](CC(C)C)C(=O)N2C[C@H](O)C[C@H]2C(=O)N[C@@H](Cc2c[nH]c3ccccc23)C(=O)N[C@@H](CCN)C(=O)N[C@@H](Cc2nn(CC(=O)OC)c3ccccc23)C(=O)N1C` [Example 23], the IC50 (range classes) lay in the range of 0.3 to 1 nM.

As for `CCCC[C@H]1C(=O)N(C)[C@@H](CCCC)C(=O)N[C@@H](CC(C)C)C(=O)N[C@H](C(=O)N[C@@H](Cc2cn(CCOCCOCCOCCOCCOCCOCCOCCOCCOCCOCCOCCNC(=O)CC[C@H](NC(=O)CCCCCCCCCCCCCCCCC(=O)O)C(=O)O)nn2)C(=O)O)CSCC(=O)N[C@@H](Cc2ccc(O)cc2)C(=O)N(C)[C@@H](C)C(=O)N[C@@H](CC(N)=O)C(=O)N2CCC[C@H]2C(=O)N[C@@H](CN)C(=O)N[C@@H](CC(C)C)C(=O)N2C[C@H](O)C[C@H]2C(=O)N[C@@H](Cc2c[nH]c3ccccc23)C(=O)N[C@@H](CCN)C(=O)N[C@@H](Cc2nn(CC(=O)O)c3ccc(OC)cc23)C(=O)N1C` [Example 24], the IC50 (range classes) is 0.3 to 1 nM.

For the compound `CCCC[C@H]1C(=O)N(C)[C@@H](CCCC)C(=O)N[C@@H](CC(C)C)C(=O)N[C@H](C(=O)N[C@@H](Cc2cn(CCOCCOCCOCCOCCOCCOCCOCCOCCOCCOCCOCCNC(=O)CC[C@H](NC(=O)CCCCCCCCCCCCCCCCC(=O)O)C(=O)O)nn2)C(=O)O)CSCC(=O)N[C@@H](Cc2ccc(O)cc2)C(=O)N(C)[C@@H](C)C(=O)N[C@@H](CC(N)=O)C(=O)N2CCC[C@H]2C(=O)N[C@@H](CN)C(=O)N[C@@H](CC(C)C)C(=O)N2C[C@H](O)C[C@H]2C(=O)N[C@@H](Cc2c[nH]c3ccccc23)C(=O)N[C@@H](CCN)C(=O)NC(Cc2cn(CC(=O)O)c3ncccc23)C(=O)N1C` (some centres unmarked) [Example 25], under “range classes”, the IC50 was in the range of 10 to 60 nM.

Turning to `CCCC[C@H]1C(=O)N(C)[C@@H](CCCC)C(=O)N[C@@H](CC(C)C)C(=O)N[C@H](C(=O)N[C@@H](Cc2cn(CCOCCOCCOCCOCCOCCOCCOCCOCCOCCOCCOCCNC(=O)CC[C@H](NC(=O)CCCCCCCCCCCCCCCCC(=O)O)C(=O)O)nn2)C(=O)O)CSCC(=O)N[C@@H](Cc2ccc(O)cc2)C(=O)N(C)[C@@H](C)C(=O)N[C@@H](CC(N)=O)C(=O)N2CCC[C@H]2C(=O)N[C@@H](CN)C(=O)N[C@@H](CC(C)C)C(=O)N2C[C@H](O)C[C@H]2C(=O)N[C@@H](Cc2c[nH]c3ccccc23)C(=O)N[C@@H](CCN)C(=O)N[C@@H](Cc2cn(CC(=O)O)c3cccnc23)C(=O)N1C` [Example 26], the IC50 (range classes) was in the range of 1.1 to 9 nM.

Take `CCCC[C@H]1C(=O)N(C)[C@@H](CCCC)C(=O)N[C@@H](CC(C)C)C(=O)N[C@H](C(=O)NCC(=O)N[C@@H](Cc2cn(CCOCCOCCOCCOCCOCCOCCOCCOCCOCCOCCOCCNC(=O)CCC(NC(=O)CCCCCCCCCCCCCCCCC(=O)O)C(=O)O)nn2)C(=O)O)CSCC(=O)N[C@@H](Cc2ccc(O)cc2)C(=O)N(C)[C@@H](C)C(=O)N[C@@H](CC(N)=O)C(=O)N2CCC[C@H]2C(=O)N[C@@H](CN)C(=O)N[C@@H](CC(C)C)C(=O)N2C[C@H](O)C[C@H]2C(=O)N[C@@H](Cc2c[nH]c3ccccc23)C(=O)N[C@@H](CCN)C(=O)N[C@@H](Cc2cn(CC(=O)O)c3ccc(OC)cc23)C(=O)N1C` (some centres unmarked) [Example 27]: where the note is “range classes”, the IC50 lay in the range of 0.3 to 1 nM.

For `CCCC[C@H]1C(=O)N(C)[C@@H](CCCC)C(=O)N[C@@H](CC(C)C)C(=O)N[C@H](C(=O)NCC(=O)N[C@@H](Cc2cn(CCOCCOCCOCCOCCOCCOCCOCCOCCOCCOCCOCCNC(=O)CCC(NC(=O)CCCCCCCCCCCCCCCCC(=O)O)C(=O)O)nn2)C(=O)O)CSCC(=O)N[C@@H](Cc2ccc(O)cc2)C(=O)N(C)[C@@H](C)C(=O)N[C@@H](CC(N)=O)C(=O)N2CCC[C@H]2C(=O)N[C@@H](CN)C(=O)N[C@@H](CC(C)C)C(=O)N2C[C@H](O)C[C@H]2C(=O)N[C@@H](Cc2c[nH]c3ccccc23)C(=O)N[C@@H](CCN)C(=O)N[C@@H](Cc2cn(CC(=O)O)c3cccnc23)C(=O)N1C` (some centres unmarked) [Example 28], under “range classes”, the IC50 lay within 10 to 60 nM.

As for `CCCC[C@H]1C(=O)N(C)[C@@H](CCCC)C(=O)N[C@@H](CC(C)C)C(=O)N[C@H](C(=O)NCC(=O)N[C@@H](Cc2cn(CCOCCOCCOCCOCCOCCOCCOCCOCCOCCOCCOCCNC(=O)CC[C@H](NC(=O)CCCCCCCCCCCCCCCCC(=O)O)C(=O)O)nn2)C(=O)O)CSCC(=O)N[C@@H](Cc2ccc(O)cc2)C(=O)N(C)[C@@H](C)C(=O)N[C@@H](CC(N)=O)C(=O)N2CCC[C@H]2C(=O)N[C@@H](CN)C(=O)N[C@@H](CC(C)C)C(=O)N2C[C@H](O)C[C@H]2C(=O)N[C@@H](Cc2c[nH]c3ccccc23)C(=O)N[C@@H](CCN)C(=O)N[C@@H](Cc2nn(CC(=O)O)c3ccccc23)C(=O)N1C` [Example 29], the IC50 (range classes) fell in the range of 0.3 to 1 nM.

Consider `CCCC[C@H]1C(=O)N(C)[C@@H](CCCC)C(=O)N[C@@H](CC(C)C)C(=O)N[C@H](C(=O)NCC(=O)N[C@@H](Cc2cn(CCOCCOCCOCCOCCOCCOCCOCCOCCOCCOCCOCCNC(=O)CC[C@H](NC(=O)CCCCCCCCCCCCCCCCC(=O)O)C(=O)O)nn2)C(=O)O)CSCC(=O)N[C@@H](Cc2ccc(O)cc2)C(=O)N(C)[C@@H](C)C(=O)N[C@@H](CC(N)=O)C(=O)N2CCC[C@H]2C(=O)N[C@@H](CN)C(=O)N[C@@H](CC(C)C)C(=O)N2C[C@H](O)C[C@H]2C(=O)N[C@@H](Cc2c[nH]c3ccccc23)C(=O)N[C@@H](CCN)C(=O)N[C@@H](Cc2cn(CC(=O)NS(C)(=O)=O)c3ccccc23)C(=O)N1C` [Example 30], for which, where the note is “range classes”, the IC50 is 1.1 to 9 nM.

For `CCCC[C@H]1C(=O)N(C)[C@@H](CCCC)C(=O)N[C@@H](CC(C)C)C(=O)N[C@H](C(=O)NCC(=O)N[C@@H](Cc2cn(CCOCCOCCOCCOCCOCCOCCOCCOCCOCCOCCOCCNC(=O)CC[C@H](NC(=O)CCCCCCCCCCCCCCCCC(=O)O)C(=O)O)nn2)C(=O)O)CSCC(=O)N[C@@H](Cc2ccc(O)cc2)C(=O)N(C)[C@@H](C)C(=O)N[C@@H](CC(N)=O)C(=O)N2CCC[C@H]2C(=O)N[C@@H](CN)C(=O)N[C@@H](CC(C)C)C(=O)N2C[C@H](O)C[C@H]2C(=O)N[C@@H](Cc2c[nH]c3ccccc23)C(=O)N[C@@H](CCN)C(=O)N[C@@H](Cc2cn(CC(=O)O)c3ncccc23)C(=O)N1C` [Example 31], the IC50 (range classes) lay within 0.3 to 1 nM.
